# Data reported in US12466800B2, “N-((1,2,3,5,6,7-hexahydro-S-indacen-4-yl)carbamoyl)-4, 5, 6, 7-tetrahydrobenzofuran-2-sulfonamide derivatives and related compounds as NLPR3 modulators for the treatment of multiple sclerosis (MS)” (Zomagen Biosciences Ltd, priority 2019, dated 2025).
# Test system: IL-1b
# Assay: Mouse BMDM IL-1b Assay
# Assay type: cell-based
# Conditions: Macrophage; mouse bone marrow derived macrophages (C57BL6); 200 ng/mL LPS 3 h, compound 30 min, 5 mM ATP 45 min; IL-1b ELISA of supernatant
# Method: Example 20: Mouse BMDM IL-1b Assay
# Mouse bone marrow cells from C57BL6 tibia and femur were culture in complete Isocov's Media supplemented with 20 ng/mL MCSF (BMDM media) at a density of 50 million cells/15 cm Petri dish. Fresh media was changed every 3 days, and bone marrow derived macrophages were collected, washed, and counted on day 7. Cells were seeded into 96 well plates at a density of 5×10^4 cells per well in 100 uL of BMDM media and cultured overnight. The cells were stimulated at 37° C. with 200 ng/mL Ultrapure LPS-B5 for 3 hours before pre-diluted compounds were added. 30 minutes after compound addition, 5 mM ATP was added for the secondary stimulation for 45 minutes. After stimulation, the plates were briefly spun down, and 50 uL of supernatant was harvested from each well. ELISA for mouse IL-1b was performed with 1:10 and 1:100 diluted supernatant using pre-coated kits. IL-1b concentrations were calculated based on pre-titrated standards, and compound inhibition IC50 is generated using the Levenberg Marquardt damped lease-square method.
row,Compound,IC50
1,"CC(=O)NC1CCCc2oc(S(=O)(=O)NC(=O)Nc3c4c(c(Br)c5c3CCC5)CCC4)cc21 (stereo not shown) [Compound 42, N-(2-(N-((8-bromo-1,2,3,5,6,7-hexahydro-s-indacen-4-yl)carbamoyl)sulfamoyl)-4,5,6,7-tetrahydrobenzofuran-4-yl)acetamide]",100 to 1000 nM
2,"CC(C)c1cccc(C(C)C)c1NC(=O)NS(=O)(=O)c1cc2c(o1)CCC/C2=N\O [Compound 81, (E)-N-((2,6-diisopropylphenyl)carbamoyl)-4-(hydroxyimino)-4,5,6,7-tetrahydrobenzofuran-2-sulfonamide]",1000 to 10000 nM
3,"CC1CC(=O)c2cc(S(=O)(=O)NC(=O)Nc3c4c(cc5c3CCC5)CCC4)oc2C1 (stereo not shown) [Compound 17, N-((1,2,3,5,6,7-hexahydro-s-indacen-4-yl)carbamoyl)-6-methyl-4-oxo-4,5,6,7-tetrahydrobenzofuran-2-sulfonamide]",100 to 1000 nM
4,"CC(C)c1ccc(F)c(C(C)C)c1NC(=O)NS(=O)(=O)c1cc2c(o1)CCC/C2=N/O [Compound 97, (Z)-N-((3-fluoro-2,6-diisopropylphenyl)carbamoyl)-4-(hydroxyimino)-4,5,6,7-tetrahydrobenzofuran-2-sulfonamide]",100 to 1000 nM
5,"CC1(C)CC(=NO)c2cc(S(=O)(=O)NC(=O)Nc3c4c(cc5c3CCC5)CCC4)oc2C1 [Compound 49, N-((1,2,3,5,6,7-hexahydro-s-indacen-4-yl)carbamoyl)-4-(hydroxyimino)-6,6-dimethyl-4,5,6,7-tetrahydrobenzofuran-2-sulfonamide]",100 to 1000 nM
6,"O=C(Nc1c2c(c(Br)c3c1CCC3)CCC2)NS(=O)(=O)c1cc2c(o1)CCC/C2=N/O [Compound 82, (Z)-N-((8-bromo-1,2,3,4,5,6,7-hexahydro-s-indacen-4-yl)carbamoyl)-4-(hydroxyimino)-4,5,6,7-tetrahydrobenzofuran-2-sulfonamide]",100 to 1000 nM
7,"CC(C)c1ccc(F)c(C(C)C)c1NC(=O)NS(=O)(=O)c1cc2c(o1)CCCCC2O (stereo not shown) [Compound 119, N-((3-fluoro-2,6-diisopropylphenyl)carbamoyl)-4-hydroxy-5,6,7,8-tetrahydro-4H-cyclohepta[b]furan-2-sulfonamide]",100 to 1000 nM
8,"CC(C)c1cc(C#N)cc(C(C)C)c1NC(=O)NS(=O)(=O)c1cc2c(o1)CCCC2(C)O (stereo not shown) [Compound 72, N-((4-cyano-2,6-diisopropylphenyl)carbamoyl)-4-hydroxy-4-methyl-4,5,6,7-tetrahydrobenzofuran-2-sulfonamide]",100 to 1000 nM
9,"CC(C)c1ccc(Cl)c(C(C)C)c1NC(=O)NS(=O)(=O)c1cc2c(o1)CCCCC2O (stereo not shown) [Compound 120, N-((3-chloro-2,6-diisopropylphenyl)carbamoyl)-4-hydroxy-5,6,7,8-tetrahydro-4H-cyclohepta[b]furan-2-sulfonamide]",100 to 1000 nM
10,O=C(Nc1c2c(cc3c1CCC3)CCC2)NS(=O)(=O)c1cc2c(o1)CCCC2=O [Compound 6],100 to 1000 nM
11,"CC(C)c1ccc(Cl)c(C(C)C)c1NC(=O)NS(=O)(=O)c1cc2c(o1)CCCCC2(C)O (stereo not shown) [Compound 111, N-((3-chloro-2,6-diisopropylphenyl)carbamoyl)-4-hydroxy-4-methyl-5,6,7,8-tetrahydro-4H-cyclohepta[b]furan-2-sulfonamide]",100 to 1000 nM
12,"CC(C)c1cccc(C(C)C)c1CC(=O)NS(=O)(=O)c1cc2c(o1)CCC(C)(C)C2=O [Compound 76, 2-(2,6-diisopropylphenyl)-N-((5,5-dimethyl-4-oxo-4,5,6,7-tetrahydrobenzofuran-2-yl)sulfonyl)acetamide]",1000 to 10000 nM
13,"CC(C)c1cc(C#N)cc(C(C)C)c1NC(=O)NS(=O)(=O)c1cc2c(o1)CCCC2O (stereo not shown) [Compound 71, N-((4-cyano-2,6-diisopropylphenyl)carbamoyl)-4-hydroxy-4,5,6,7-tetrahydrobenzofuran-2-sulfonamide]",100 to 1000 nM
14,"Cc1c(S(=O)(=O)NC(=O)Nc2c3c(cc4c2CCC4)CCC3)oc2c1C(C)(O)CCC2 (stereo not shown) [Compound 93, N-((1,2,3,5,6,7-hexahydro-s-indacen-4-yl)carbamoyl)-4-hydroxy-3,4-dimethyl-4,5,6,7-tetrahydrobenzofuran-2-sulfonamide]",< 100 nM
15,"CC1(O)CCCc2oc(S(=O)(=O)NC(=O)Nc3c4c(cc5c3CCC5)CCC4)cc21 (stereo not shown) [Compound 5, N-((1,2,3,5,6,7-hexahydro-s-indacen-4-yl)carbamoyl)-4-hydroxy-4-methyl-4,5,6,7-tetrahydrobenzofuran-2-sulfonamide]",< 100 nM
16,"CCOC(=O)CC1(C)CCCc2oc(S(=O)(=O)NC(=O)Nc3c4c(cc5c3CCC5)CCC4)c(C)c21 (stereo not shown) [Compound 94, ethyl 2-(2-(N-((1,2,3,5,6,7-hexahydro-s-indacen-4-yl)carbamoyl)sulfamoyl)-3,4-dimethyl-4,5,6,7-tetrahydrobenzofuran-4-yl)acetate]",100 to 1000 nM
17,"CO/N=C1/CCCc2oc(S(=O)(=O)NC(=O)Nc3c4c(cc5c3CCC5)CCC4)cc21 [Compound 41, (Z)-N-((1,2,3,5,6,7-hexahydro-s-indacen-4-yl)carbamoyl)-4-(methoxyimino)-4,5,6,7-tetrahydrobenzofuran-2-sulfonamide]",100 to 1000 nM
18,"Cc1c2c(c(NC(=O)NS(=O)(=O)c3cc4c(o3)CCCC4O)c3c1CCC3)CCC2 (stereo not shown) [Compound 52, 4-hydroxy-N-((8-methyl-1,2,3,5,6,7-hexahydro-s-indacen-4-yl)carbamoyl)-4,5,6,7-tetrahydrobenzofuran-2-sulfonamide]",< 100 nM
19,"CC1(C)Cc2oc(S(=O)(=O)NC(=O)Nc3c4c(cc5c3CCC5)CCC4)cc2C(C)(O)C1 (stereo not shown) [Compound 20, N-((1,2,3,5,6,7-hexahydro-s-indacen-4-yl)carbamoyl)-4-hydroxy-4,6,6-trimethyl-4,5,6,7-tetrahydrobenzofuran-2-sulfonamide]",< 100 nM
20,"CC1(O)CCCCc2oc(S(=O)(=O)NC(=O)Nc3c4c(cc5c3CCC5)CCC4)cc21 (stereo not shown) [Compound 24, N-((1,2,3,5,6,7-hexahydro-s-indacen-4-yl)carbamoyl)-4-hydroxy-4-methyl-5,6,7,8-tetrahydro-4H-cyclohepta[b]furan-2-sulfonamide]",< 100 nM

# Other lines, results leading:
row,IC50,Compound
1,< 100 nM,"CC(C)c1ccc(Cl)c(C(C)C)c1NC(=O)NS(=O)(=O)c1cc2c(o1)CCCC2O (stereo not shown) [Compound 65, N-((3-chloro-2,6-diisopropylphenyl)carbamoyl)-4-hydroxy-4,5,6,7-tetrahydrobenzofuran-2-sulfonamide]"
2,< 100 nM,"O=C(Nc1c2c(c(Cl)c3c1CCC3)CCC2)NS(=O)(=O)c1cc2c(o1)CCCCC2O (stereo not shown) [Compound 117, N-((8-chloro-1,2,3,5,6,7-hexahydro-s-indacen-4-yl)carbamoyl)-4-hydroxy-5,6,7,8-tetrahydro-4H-cyclohepta[b]furan-2-sulfonamide]"
3,< 100 nM,"O=C(Nc1c2c(cc3c1CCC3)CCC2)NS(=O)(=O)c1cc2c(o1)CCC/C2=N/O [Compound 36, (Z)—N-((1,2,3,5,6,7-hexahydro-s-indacen-4-yl)carbamoyl)-4-(hydroxyimino)-4,5,6,7-tetrahydrobenzofuran-2-sulfonamide]"
4,< 100 nM,"O=C(Nc1c2c(c(Br)c3c1CCC3)CCC2)NS(=O)(=O)c1cc2c(o1)CCCC2O (stereo not shown) [Compound 39, N-((8-bromo-1,2,3,5,6,7-hexahydro-s-indacen-4-yl)carbamoyl)-4-hydroxy-4,5,6,7-tetrahydrobenzofuran-2-sulfonamide]"
5,< 100 nM,"C=CCC1(O)c2cc(S(=O)(=O)NC(=O)Nc3c4c(cc5c3CCC5)CCC4)oc2CCC1(C)C (stereo not shown) [Compound 88, 4-allyl-N-((1,2,3,5,6,7-hexahydro-s-indacen-4-yl)carbamoyl)-4-hydroxy-5,5-dimethyl-4,5,6,7-tetrahydrobenzofuran-2-sulfonamide]"
6,< 100 nM,"O=C(Nc1c2c(c(Br)c3c1CCC3)CCC2)NS(=O)(=O)c1cc2c(o1)CCCCC2O (stereo not shown) [Compound 118, N-((8-bromo-1,2,3,5,6,7-hexahydro-s-indacen-4-yl)carbamoyl)-4-hydroxy-5,6,7,8-tetrahydro-4H-cyclohepta[b]furan-2-sulfonamide]"
7,< 100 nM,"CC1(O)CCCCc2oc(S(=O)(=O)NC(=O)Nc3c4c(c(F)c5c3CCC5)CCC4)cc21 (stereo not shown) [Compound 106, N-((8-fluoro-1,2,3,5,6,7-hexahydro-s-indacen-4-yl)carbamoyl)-4-hydroxy-4-methyl-5,6,7,8-tetrahydro-4H-cyclohepta[b]furan-2-sulfonamide]"
8,< 100 nM,"O=C(Nc1c2c(cc3c1CCC3)CCC2)NS(=O)(=O)c1cc2c(o1)CCC/C2=N\O [Compound 35, (E)-N-((1,2,3,5,6,7-hexahydro-s-indacen-4-yl)carbamoyl)-4-(hydroxyimino)-4,5,6,7-tetrahydrobenzofuran-2-sulfonamide]"
9,< 100 nM,"CC(C)c1cc(Cl)cc(C(C)C)c1NC(=O)NS(=O)(=O)c1cc2c(o1)CCCCC2(C)O (stereo not shown) [Compound 122, N-((4-chloro-2,6-diisopropylphenyl)carbamoyl)-4-hydroxy-4-methyl-5,6,7,8-tetrahydro-4H-cyclohepta[b]furan-2-sulfonamide]"
10,< 100 nM,"O=C(Nc1c2c(cc3c1CCC3)CCC2)NS(=O)(=O)c1cc2c(o1)CCCCC2O (stereo not shown) [Compound 25, N-((1,2,3,5,6,7-hexahydro-s-indacen-4-yl)carbamoyl)-4-hydroxy-5,6,7,8-tetrahydro-4H-cyclohepta[b]furan-2-sulfonamide]"
11,< 100 nM,"O=C(Nc1c2c(c(Cl)c3c1CCC3)CCC2)NS(=O)(=O)c1cc2c(o1)CCCC2O (stereo not shown) [Compound 43, N-((8-chloro-1,2,3,5,6,7-hexahydro-s-indacen-4-yl)carbamoyl)-4-hydroxy-4,5,6,7-tetrahydrobenzofuran-2-sulfonamide]"
